Where a name gives a salt, the structure may show the parent alone.
Target: T1, human ASK1 (Homo sapiens, UniProt Q99683)
T1 construct: a 2.2 kb DNA fragment containing an ASK1 gene was recovered from the gel; made in house; host or cells: Sf-21 insect cells, recombinant baculovirus (pFASTBAC1, Bac-to-Bac)
T1 sequence (Q99683 649-1374 limits assumed): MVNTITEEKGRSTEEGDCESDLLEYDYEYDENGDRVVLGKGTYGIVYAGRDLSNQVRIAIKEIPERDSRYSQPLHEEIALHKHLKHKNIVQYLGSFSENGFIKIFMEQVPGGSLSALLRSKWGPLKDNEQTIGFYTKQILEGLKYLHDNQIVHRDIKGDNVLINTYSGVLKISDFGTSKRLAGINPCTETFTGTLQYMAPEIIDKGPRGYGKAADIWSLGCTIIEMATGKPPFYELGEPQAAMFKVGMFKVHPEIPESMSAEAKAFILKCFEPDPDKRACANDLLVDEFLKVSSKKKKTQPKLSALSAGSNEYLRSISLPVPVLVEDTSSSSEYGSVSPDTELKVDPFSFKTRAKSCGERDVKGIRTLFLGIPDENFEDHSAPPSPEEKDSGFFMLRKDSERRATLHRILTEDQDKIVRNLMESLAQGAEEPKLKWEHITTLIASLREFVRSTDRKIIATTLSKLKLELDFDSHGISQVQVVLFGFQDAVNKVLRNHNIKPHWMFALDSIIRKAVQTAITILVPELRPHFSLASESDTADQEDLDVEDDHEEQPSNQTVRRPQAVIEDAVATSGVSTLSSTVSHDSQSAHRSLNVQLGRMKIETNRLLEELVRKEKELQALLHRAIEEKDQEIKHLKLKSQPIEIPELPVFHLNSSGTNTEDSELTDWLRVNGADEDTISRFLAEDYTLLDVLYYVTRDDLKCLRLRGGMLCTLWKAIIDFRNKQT
Assay: Scintillation assay measuring inhibition of ASK1 phosphorylation of myelin basic protein
Assay type: biochemical
Details: active ASK1 protein 30 ng, myelin basic protein 1 μg, [γ-32P]ATP, room temperature 30 min; values given as ranges; read-out: Enzyme Activity IC50
Method: Cloning of cDNA encoding human ASK1 was conducted by PCR using primers, 5′-[…] AGAGAAGGGGA-3′ (SEQ ID NO: 1) and 5′-[…]-3′ (SEQ ID NO: 2), from human heart cDNA library (Becton, Dickinson and Company). The PCR product was subjected to agarose gel (1%) electrophoresis, a 2.2 kb DNA fragment containing an ASK1 gene was recovered from the gel, and then digested with restriction enzymes, NotI and SalI, and inserted into a plasmid pFASTBAC1 (Invitrogen) to prepare a plasmid pFB-ASK1. The insert was verified by sequencing. Recombinant baculovirus was prepared according to the procedure of the Bac-to-Bac baculovirus expression system (Invitrogen).
Sf-21 cells were seeded to achieve 1×10^6 cells/mL in 100 mL of Sf-900 II SFM medium (Invitrogen) which contains 10% fetal calf serum and then cultured at 27° C. for 24 hrs. To express ASK1 in cells, 0.15 mL of the recombinant baculovirus virus stock was added to cells, and the then cultured for 60 hrs. The cells were separated from the culture solution by centrifugation at 3000 rpm for 10 min and washed once with PBS. The cells were suspended in 10 mL of lysis buffer (25 mM HEPES (pH 7.5), 1% Triton X, 130 mM NaCl, 1 mM EDTA, 1 mM DTT, 25 mM β-glycerophosphate, Protease inhibitor complete (Roche), 1 mM sodium orthovanadate) and ruptured by four times of treatment with a homogenizer (POLYTRON) at 20000 rpm for 30 seconds. Active ASK1 protein was purified from a supernatant obtained by centrifugal separation at 40000 rpm for 45 min using anti-FLAG M2 Affinity Gel (Sigma).
The test compounds (2.5 μl) dissolved in DMSO were added to wells containing 37.5 μl of the reaction solution (25 mM HEPES (pH 7.5), 10 mM magnesium acetate, 1 mM DTT) including 30 ng of active ASK1 protein and 1 μg of myelin basic protein (Wako), and incubated at room temperature for 5 min. To start the reaction, 10 μL of ATP solution (2.5 μM ATP, 0.1 μCi [γ-^32P]ATP) was added to wells. After incubating at room temperature for 30 min, the reaction was terminated by adding 50 μl of 20% TCA solution. The reaction solution was incubated at 4° C. for 30 min and an acid-insoluble fraction was transferred onto a GF/C filter (Packard) with Cell Harvester (Packard), and washed with 250 mM phosphoric acid. After drying at 45° C. for 60 min., 40 μL of Microscint 0 (Packard) was added and the radioactivity was measured with TopCount (Packard). The concentrations (IC50 value) of the test compounds necessary for 50% inhibition of kinase activity were calculated by PRISM 3.0 (Graphpad Software).
The enzyme activities of selected compounds of the present invention against ASK1 were determined using the assay disclosed in Example A and B. The resulted pIC50 values are reported in Table 1.

SMILES	IC50 [µM]
CC(C)(O)c1ccc(C(=O)Nc2cc(-c3ccc(C(F)(F)F)cc3)n3nccc3n2)cc1 [Compound 24, 4-(2-hydroxypropan-2-yl)-N-(7-(4-(trifluoromethyl)phenyl)pyrazolo[1,5-a]pyrimidin-5-yl)benzamide]	0.1 to 1
Cc1cc2nc(NC(=O)c3ccc(C(C)(C)CO)cc3)cc(-c3ccccc3)n2n1 [Compound 29, 4-(1-hydroxy-2-methylpropan-2-yl)-N-(2-methyl-7-phenylpyrazolo[1,5-a]pyrimidin-5-yl)benzamide]	< 0.1
CC(C)(C)c1ccc(C(=O)Nc2cc(-c3cccc(CC#N)c3)n3nccc3n2)cc1 [Compound 34, 4-tert-butyl-N-{7-[3-(cyanomethyl)phenyl]pyrazolo[1,5-a]pyrimidin-5-yl}benzamide]	< 0.1
CC(C)(C)c1ccc(C(=O)Nc2cc(-c3ccc(C(N)=O)cc3)n3nccc3n2)cc1 [Compound 42, 4-tert-butyl-N-(7-(4-carbamoylphenyl)pyrazolo[1,5-a]pyrimidin-5-yl)benzamide]	< 0.1
CC(C)(O)c1ccc(C(=O)Nc2cc(N3CCc4ccccc4C3)n3nccc3n2)cc1 [Compound 64, N-(7-(3,4-dihydroisoquinolin-2(1H)-yl)pyrazolo[1,5-a]pyrimidin-5-yl)-4-(2-hydroxypropan-2-yl)benzamide]	< 0.1
CC(C)(C)c1ccc(C(=O)Nc2cc(N3CCOCC3)n3nccc3n2)cc1 [Compound 65, 4-tert-butyl-N-(7-morpholinopyrazolo[1,5-a]pyrimidin-5-yl)benzamide, trifluoroacetate salt]	< 0.1
CC(C)(C)c1ccc(C(=O)Nc2cc(N3CCc4ccccc4C3)n3nccc3n2)cc1 [Compound 66, 4-tert-butyl-N-(7-(3,4-dihydroisoquinolin-2(1H)-yl)pyrazolo[1,5-a]pyrimidin-5-yl)benzamide]	< 0.1
CC(C)(O)c1ccc(C(=O)Nc2cc(N3CCC[C@H]3CO)n3nccc3n2)cc1 [Compound 67, (S)—N-(7-(2-(hydroxymethyl)pyrrolidin-1-yl)pyrazolo[1,5-a]pyrimidin-5-yl)-4-(2-hydroxypropan-2-yl)benzamide]	0.1 to 1
CC(C)(O)c1ccc(C(=O)Nc2cc(N3CCC[C@@H]3CO)n3nccc3n2)cc1 [Compound 68, (R)—N-(7-(2-(hydroxymethyl)pyrrolidin-1-yl)pyrazolo[1,5-a]pyrimidin-5-yl)-4-(2-hydroxypropan-2-yl)benzamide]	0.1 to 1
CC(C)(O)c1ccc(C(=O)Nc2cc(N3CC[C@@H](O)C3)n3nccc3n2)cc1 [Compound 69, (R)-4-(2-hydroxypropan-2-yl)-N-(7-(3-hydroxypyrrolidin-1-yl)pyrazolo[1,5-a]pyrimidin-5-yl)benzamide]	0.1 to 1
CC(C)(O)c1ccc(C(=O)Nc2cc(N3CC[C@H](O)C3)n3nccc3n2)cc1 [Compound 70, (S)-4-(2-hydroxypropan-2-yl)-N-(7-(3-hydroxypyrrolidin-1-yl)pyrazolo[1,5-a]pyrimidin-5-yl)benzamide]	0.1 to 1
CC(C)(O)c1ccc(C(=O)Nc2cc(N3CCC(CCO)CC3)n3nccc3n2)cc1 [Compound 71, N-(7-(4-(2-hydroxyethyl)piperidin-1-yl)pyrazolo[1,5-a]pyrimidin-5-yl)-4-(2-hydroxypropan-2-yl)benzamide]	< 0.1
CC(C)(O)c1ccc(C(=O)Nc2cc(N3CCOCC3)n3nccc3n2)cc1 [Compound 72, 4-(2-hydroxypropan-2-yl)-N-(7-morpholinopyrazolo[1,5-a]pyrimidin-5-yl)benzamide]	< 0.1
CC(C)(O)c1ccc(C(=O)Nc2cc(N3CCC(O)CC3)n3nccc3n2)cc1 [Compound 73, N-(7-(4-hydroxypiperidin-1-yl)pyrazolo[1,5-a]pyrimidin-5-yl)-4-(2-hydroxypropan-2-yl)benzamide]	0.1 to 1
CC(C)(O)c1ccc(C(=O)Nc2cc(N3CCCCC3CCO)n3nccc3n2)cc1 (stereo not shown) [Compound 74, N-(7-(2-(2-hydroxyethyl)piperidin-1-yl)pyrazolo[1,5-a]pyrimidin-5-yl)-4-(2-hydroxypropan-2-yl)benzamide]	0.1 to 1
CC(C)(C)c1ccc(C(=O)Nc2cc(N3CCC[C@H](O)C3)n3nccc3n2)cc1 [Compound 75, (S)-4-tert-butyl-N-(7-(3-hydroxypiperidin-1-yl)pyrazolo[1,5-a]pyrimidin-5-yl)benzamide]	0.1 to 1
CC(C)(O)c1ccc(C(=O)Nc2cc(N3CCC[C@@H](O)C3)n3nccc3n2)cc1 [Compound 76, (R)—N-(7-(3-hydroxypiperidin-1-yl)pyrazolo[1,5-a]pyrimidin-5-yl)-4-(2-hydroxypropan-2-yl)benzamide]	0.1 to 1
CC(C)(C)c1ccc(C(=O)Nc2cc(N3CCC[C@@H](O)C3)n3nccc3n2)cc1 [Compound 77, (R)-4-tert-butyl-N-(7-(3-hydroxypiperidin-1-yl)pyrazolo[1,5-a]pyrimidin-5-yl)benzamide]	< 0.1
CC(C)(O)c1ccc(C(=O)Nc2cc(N3CCC[C@H](O)C3)n3nccc3n2)cc1 [Compound 78, (S)—N-(7-(3-hydroxypiperidin-1-yl)pyrazolo[1,5-a]pyrimidin-5-yl)-4-(2-hydroxypropan-2-yl)benzamide]	0.1 to 1
CC(C)(O)c1ccc(C(=O)Nc2cc(N3CCc4[nH]ncc4C3)n3nccc3n2)cc1 [Compound 79, N-(7-(6,7-dihydro-1H-pyrazolo[4,3-c]pyridin-5(4H)-yl)pyrazolo[1,5-a]pyrimidin-5-yl)-4-(2-hydroxypropan-2-yl)benzamide]	0.1 to 1
CC(C)(O)c1ccc(C(=O)Nc2cc(N3CCC[C@@H](C(N)=O)C3)n3nccc3n2)cc1 [Compound 83, (R)-1-(5-(4-(2-hydroxypropan-2-yl)benzamido)pyrazolo[1,5-a]pyrimidin-7-yl)piperidine-3-carboxamide]	< 0.1
CC(C)(O)c1ccc(C(=O)Nc2cc(N3CCC[C@@H](C(=O)O)C3)n3nccc3n2)cc1 [Compound 84, (R)-1-(5-(4-(2-hydroxypropan-2-yl)benzamido)pyrazolo[1,5-a]pyrimidin-7-yl)piperidine-3-carboxylic acid]	0.1 to 1
CC(C)(O)c1ccc(C(=O)Nc2cc(N3CCC[C@H](C(N)=O)C3)n3nccc3n2)cc1 [Compound 85, (S)-1-(5-(4-(2-hydroxypropan-2-yl)benzamido)pyrazolo[1,5-a]pyrimidin-7-yl)piperidine-3-carboxamide]	0.1 to 1
CC(C)(O)c1ccc(C(=O)Nc2cc(N3CCC[C@H](C(=O)O)C3)n3nccc3n2)cc1 [Compound 86, (S)-1-(5-(4-(2-hydroxypropan-2-yl)benzamido)pyrazolo[1,5-a]pyrimidin-7-yl)piperidine-3-carboxylic acid]	> 1
CC(C)(O)c1ccc(C(=O)Nc2cc(N3CCCC3)n3nccc3n2)cc1 [Compound 87, 4-(2-hydroxypropan-2-yl)-N-(7-(pyrrolidin-1-yl)pyrazolo[1,5-a]pyrimidin-5-yl)benzamide]	< 0.1

From US8921358B2, “Apoptosis signal-regulating kinase 1 inhibitors” (Takeda Pharmaceutical Company Limited, priority 2008, dated 2014)
